Values of other authors as cited in patent US20030206958A1, “Chitosan biopolymer for the topical delivery of active agents” (priority 2002, published 2003).

SMILES: CC1=C(/C=C/C(C)=C/C=C/C(C)=C/C(=O)O)C(C)(C)CCC1 [tretinoin, all-trans retinoic acid]
- Patients with irritation (topical (Gilchrest, 1997)): 90 % of patients
- Patients discontinuing treatment because of irritation (topical (Stam-Posthuma et al., 1998)): ~50 % of patients
